The text below walks through data of US20260124213A1, “STAPHYLOCOCCUS AUREUS PBP4 INHIBITORS AND METHOD OF USE” (UNIVERSITY OF ROCHESTER, priority 2022, published 2026).

Test [1] concerns the target recombinant B. subtilis PBP4 (Bacillus subtilis, UniProt P40750). Kind of test: BOCILLIN FL fluorescence polarization binding competition. The method, then: PBP4 BOCILLIN™ FL Binding Competition Assays. The ability of putative PBP4 inhibitors to impact the active site of recombinant PBP4 was assessed using two previously established BOCILLIN™-FL Penicillin (Penicillin V conjugated to BODIPY fluorescent dye) binding assays. First, fluorescence polarization assays were performed as previously described. Briefly, the indicated amount of the putative PBP4 inhibitor or control antibiotic was incubated with 1 μM recombinant B. subtilis PBP4 or S. aureus PBP2a in potassium phosphate buffer (40 mM K2HPO4 and 10 mM KH2PO4) for 1 hour in black 96-well microtiter plates (Corning Life Sciences®, Corning, NY). Following incubation, 1 μM (final concentration) BOCILLIN™ FL penicillin was added, and the mixture was incubated for 30 minutes. BOCILLIN™ FL fluorescence polarization was measured at (495nm excitation and 545nm emission) in a SpectraMax® M5 multimode plate reader (Molecular Devices®, San Jose, CA). All assays were repeated at least 8 times, averaged, and values falling outside of 2 standard deviations were considered outliers. Resulting data was plotted as percentage BOCILLIN™ FL binding inhibition=(T/U)×100; T=FL polarization of ((PBP4+BOCILLIN™ FL)−(PBP4+BOCILLIN™ FL+inhibitor compound)), U=FL polarization of ((PBP4+BOCILLIN™ FL)−(BOCILLIN™ FL)). Second, gel electrophoresis and fluorescence detection were used to measure BOCILLIN™ FL labeling of PBP4 treated with the known PBP4 inhibitor cefoxitin (positive control), kanamycin (negative control) or 9314848 (test compound). Briefly, 1 μM of recombinant PBP4 was mixed with 0, 50, 500, 2000, or 5000 μM 9314848 or control antibiotic in 50 mM phosphate buffer (pH 7.4) and incubated at 37° C. for 30 minutes. Next 40 μM of BOCILLIN™ FL was added to the reaction mixture and incubated for an additional 30 minutes at 37° C. Reactions were stopped by adding 5×SDS-PAGE gel loading dye, heated at 100° C. for 3 minutes and separated by electrophoresis in 12% SDS-PAGE (2 h, 120 Volts). BOCILLIN™ FL labeled PBP4 was imaged at λ=365 nm using a BioRad© Gel Doc EZ™ Imaging system and the gel was then subsequently stained with Bio-safe Coomassie Brilliant Blue stain (BioRad©, Hercules, CA, USA) to measure the amount of protein present in each reaction condition and analyzed using NIH-ImageJ software. The percent BOCILLIN™ FL binding was calculated by first normalizing the protein present in each reaction condition to that of untreated control and subsequently applying each reaction's protein normalization factor to each reaction's fluorescent signal. The percentage BOCILLIN™ FL binding inhibition was then calculated as the normalized band intensity of antibiotic/compound treated sample as compared to control sample (PBP4+BOCILLIN™ FL in the absence of compound).
To more directly evaluate whether 9314848 is likely to affect PBP4 function, the compound's ability to bind recombinant PBP4 was measured using BOCILLIN™ FL fluorescence polarization displacement assays. The premise for the assay is that the fluorescence polarization of the fluorescently labeled β-lactam, penicillin V (BOCILLIN™ FL), will increase upon binding to its cognate target (i.e., PBP4). Further, compounds that bind PBP4 and inhibit its function would impede BOCILLIN™ FL binding thereby allowing assessment of the protein binding affinity of 9314848 using a simple fluorescence reduction assay.
Background: In fluorescence polarisation assays a small probe gives low polarisation when free and higher when bound to something large.

The subject of a further test is recombinant PBP4. Kind of test: BOCILLIN FL labeling of PBP4, gel electrophoresis and fluorescence detection. Type of test: binding. To be noted: kanamycin 2000 μM or 5000 μM. The method, then:
PBP4 BOCILLIN™ FL Binding Competition Assays. The ability of putative PBP4 inhibitors to impact the active site of recombinant PBP4 was assessed using two previously established BOCILLIN™-FL Penicillin (Penicillin V conjugated to BODIPY fluorescent dye) binding assays. First, fluorescence polarization assays were performed as previously described. Briefly, the indicated amount of the putative PBP4 inhibitor or control antibiotic was incubated with 1 μM recombinant B. subtilis PBP4 or S. aureus PBP2a in potassium phosphate buffer (40 mM K2HPO4 and 10 mM KH2PO4) for 1 hour in black 96-well microtiter plates (Corning Life Sciences®, Corning, NY). […] BOCILLIN™ FL fluorescence polarization was measured at (495nm excitation and 545nm emission) in a SpectraMax® M5 multimode plate reader (Molecular Devices®, San Jose, CA). […] Second, gel electrophoresis and fluorescence detection were used to measure BOCILLIN™ FL labeling of PBP4 treated with the known PBP4 inhibitor cefoxitin (positive control), kanamycin (negative control) or 9314848 (test compound). […] BOCILLIN™ FL labeled PBP4 was imaged at λ=365 nm using a BioRad© Gel Doc EZ™ Imaging system and the gel was then subsequently stained with Bio-safe Coomassie Brilliant Blue stain (BioRad©, Hercules, CA, USA) to measure the amount of protein present in each reaction condition and analyzed using NIH-ImageJ software. […]

Another test relates to MRSA strain AH-1263. Kind of test: Broth microdilution antibiotic potentiation. Type of test: cell-based, Staphylococcus aureus. To be noted: for MIC: Staphylococcus aureus, MRSA. The method, then:
(§1) Broth Microdilution Method for Antibiotic Potentiation with MRSA Strains. Bacteria were cultured for 6 hours in CAMHB and sub-cultured to 5×10^5 CFU/mL in CAMHB. Subcultures were aliquoted (4 mL) into culture tubes and then inoculated with compound from 10 mM or 100 mM stock in DMSO to the desired concentration. […]. Bacteria treated with antibiotic alone served as the control. Samples from the secondary culture tubes were then aliquoted (200 μL) into the first row of wells of a 96-well microtiter plate. Rows 2-11 were filled (100 μL) with the remaining 4 mL of bacterial subculture containing the adjuvant. Row 12 was filled (100 μL) with uninoculated media. From row 1, 100 μL was transferred to row two and mixed 5-8 times before being transferred to row 3. This procedure was used to serial dilute the rest of the rows through 10. The microtiter plate was then covered in Press 'n Seal and incubated at 37° C.
For orientation: Dilution methods test growth across graded concentrations, often in twofold steps.

For a further test, the system named is MRSA strain AH-2204. Kind of test: Broth microdilution antibiotic potentiation. Type of test: cell-based, Staphylococcus aureus. As to conditions: Staphylococcus aureus, MRSA. The method, then:
as §1

Test [2] has as its system MRSA strain ATCC BAA-1556. Kind of test: Broth microdilution antibiotic potentiation. Type of test: cell-based, Staphylococcus aureus. To be noted: for MIC: Staphylococcus aureus. How it is done: as §1
The subject of another test is MRSA strain 700699. Kind of test: Broth microdilution antibiotic potentiation. The class given is cell-based. To be noted: Staphylococcus aureus, read-out: Oxacillin MIC, no compound (—). How it is done: as §1
The subject of the next test is MRSA strain BAA-1685. Kind of test: Broth microdilution antibiotic potentiation. The class given is cell-based. As to conditions: Staphylococcus aureus, read-out: Oxacillin MIC, no compound (—). The method, then: as §1
Another test deals with MRSA strain BAA-44. Kind of test: Broth microdilution antibiotic potentiation. To be noted: Staphylococcus aureus, read-out: Oxacillin MIC, no compound (—). Type of test: cell-based. The method, then: as §1
Another test concerns MRSA strain BAA-811. Kind of test: Broth microdilution antibiotic potentiation. The class given is cell-based. As to conditions: Staphylococcus aureus, read-out: Oxacillin MIC, no compound (—). How it is done:
as §1

The subject of another test is MRSA strain 43300. Kind of test: Broth microdilution antibiotic potentiation. Type of test: cell-based. To be noted: Staphylococcus aureus, read-out: Oxacillin MIC, no compound (—). The method, then: (§2) Broth Microdilution Method for Antibiotic Potentiation with MRSA Strains. Bacteria were cultured for 6 hours in CAMHB and sub-cultured to 5×10^5 CFU/mL in CAMHB. Subcultures were aliquoted (4 mL) into culture tubes and then inoculated with compound from 10 mM or 100 mM stock in DMSO to the desired concentration. […] Bacteria treated with antibiotic alone served as the control. Samples from the secondary culture tubes were then aliquoted (200 μL) into the first row of wells of a 96-well microtiter plate. Rows 2-11 were filled (100 μL) with the remaining 4 mL of bacterial subculture containing the adjuvant. Row 12 was filled (100 μL) with uninoculated media. From row 1, 100 μL was transferred to row two and mixed 5-8 times before being transferred to row 3. This procedure was used to serial dilute the rest of the rows through 10. The microtiter plate was then covered in Press 'n Seal and incubated at 37° C.

For another test, the system named is MRSA strain 700789. Kind of test: Broth microdilution antibiotic potentiation. The class given is cell-based. As to conditions: Staphylococcus aureus, read-out: Oxacillin MIC, no compound (—). How it is done: as §2
The next test concerns MRSA strain BAA-1770. Kind of test: Broth microdilution antibiotic potentiation. Type of test: cell-based, Staphylococcus aureus. As to conditions: Staphylococcus aureus, read-out: Oxacillin MIC, no compound (—). How it is done:
as §2

“And” between values parts separate entries of the source, which are not always exact repeats. Equal values may be shown once. Read-outs that look alike come from different tables or passages of the source.

As a reminder, the MIC is the smallest concentration in the dilution series that meets the test's criterion for growth inhibition.

recombinant B. subtilis PBP4, sequence (P40750 22-624): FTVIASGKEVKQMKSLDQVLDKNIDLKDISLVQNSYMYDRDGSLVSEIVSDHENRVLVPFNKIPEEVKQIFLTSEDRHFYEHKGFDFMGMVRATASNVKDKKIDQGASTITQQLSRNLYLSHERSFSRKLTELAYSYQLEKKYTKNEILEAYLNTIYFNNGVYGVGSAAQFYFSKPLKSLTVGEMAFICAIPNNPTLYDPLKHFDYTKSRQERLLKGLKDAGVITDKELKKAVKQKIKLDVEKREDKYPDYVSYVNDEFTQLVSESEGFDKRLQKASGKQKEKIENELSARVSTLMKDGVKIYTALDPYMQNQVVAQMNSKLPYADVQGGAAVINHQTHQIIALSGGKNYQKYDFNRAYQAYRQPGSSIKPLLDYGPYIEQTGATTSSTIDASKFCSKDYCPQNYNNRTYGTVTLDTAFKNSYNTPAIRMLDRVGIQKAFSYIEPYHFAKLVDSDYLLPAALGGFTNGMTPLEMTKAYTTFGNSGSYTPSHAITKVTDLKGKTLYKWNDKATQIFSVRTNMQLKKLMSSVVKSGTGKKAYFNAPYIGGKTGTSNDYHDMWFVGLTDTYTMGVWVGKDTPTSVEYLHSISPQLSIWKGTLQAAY

Consider `CC1(C)S[C@@H]2[C@H](NC(=O)[C@H](N)c3ccccc3)C(=O)N2[C@H]1C(=O)O` [Ampicillin, ampicillin], for which, in [1], the “Effect of preincubation on BOCILLIN FL binding to PBP4 (fluorescence polarization)” value is listed as “limited BOCILLIN™ FL binding”. Also, the “Concentration of maximum BOCILLIN FL binding inhibition” value in [1] (dose-response 0-50 μM) is 25 to 50 µM. In addition, in the test on recombinant PBP4, the “Effect of preincubation on BOCILLIN FL labeling of PBP4 (gel)” value was “reduced the protein's ability to bind the fluorescent substrate in a dose-dependent manner”. For the same compound, the minimal inhibitory concentration (MIC) came to 16 µg/mL in the test with MRSA strain AH-1263 (AH-1263, read-out: Ampicillin MIC, no compound (—)); 2 µg/mL in the test on MRSA strain AH-2204 (AH-2204, read-out: Ampicillin MIC, no compound (—)); 16 µg/mL in test [2] (ATCC BAA-1556, read-out: Ampicillin MIC, no compound (—)).
Consider `Cc1onc(-c2ccccc2)c1C(=O)N[C@@H]1C(=O)N2[C@@H]1SC(C)(C)[C@@H]2C(=O)O` [Oxacillin, oxacillin], for which the “Oxacillin MIC, no compound (—)” value with MRSA strain AH-1263 (AH-1263) is 32 µg/mL; in [2] (ATCC BAA-1556), 32 µg/mL and 16 µg/mL. Also, the MIC in the test with MRSA strain AH-1263 (read-out: Oxacillin MIC, no compound (—), AH-1263) was determined as 16 µg/mL; in the test with MRSA strain AH-2204 (read-out: Oxacillin MIC, no compound (—), AH-2204) it was 32 µg/mL; in test [2] (read-out: Oxacillin MIC, no compound (—), ATCC BAA-1556) it was 32 µg/mL; in the test on MRSA strain 700699, 16 µg/mL; in the test on MRSA strain BAA-1685, 64 µg/mL; in the test with MRSA strain BAA-44 it was 16 µg/mL. Besides, the MIC in the test with MRSA strain BAA-811 is 256 µg/mL; in the test on MRSA strain 43300 it was 512 µg/mL; with MRSA strain 700789 it was 256 µg/mL; with MRSA strain BAA-1770, 512 µg/mL.
